Consider five compounds from US12139520B2 (priority 2020, dated 2024).

One may read the EC50 as the concentration that produces a half-maximal response.

In one series the target is T1, hAMY3 receptor (Homo sapiens, UniProt O60896+P30988).
T1 sequence (P30988 25-474): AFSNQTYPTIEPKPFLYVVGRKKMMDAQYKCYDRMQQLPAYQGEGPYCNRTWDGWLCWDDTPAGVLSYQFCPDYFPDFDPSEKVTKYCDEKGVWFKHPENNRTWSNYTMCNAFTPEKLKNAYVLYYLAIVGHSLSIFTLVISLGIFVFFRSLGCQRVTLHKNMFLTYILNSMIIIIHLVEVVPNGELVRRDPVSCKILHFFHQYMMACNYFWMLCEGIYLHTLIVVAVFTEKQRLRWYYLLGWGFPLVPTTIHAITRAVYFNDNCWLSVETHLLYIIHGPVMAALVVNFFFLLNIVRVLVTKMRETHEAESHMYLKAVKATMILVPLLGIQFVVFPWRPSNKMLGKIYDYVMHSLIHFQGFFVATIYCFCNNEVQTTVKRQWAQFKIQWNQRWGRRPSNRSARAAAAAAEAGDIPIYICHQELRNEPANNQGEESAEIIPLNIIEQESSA
T1 sequence (O60896 24-148 partner): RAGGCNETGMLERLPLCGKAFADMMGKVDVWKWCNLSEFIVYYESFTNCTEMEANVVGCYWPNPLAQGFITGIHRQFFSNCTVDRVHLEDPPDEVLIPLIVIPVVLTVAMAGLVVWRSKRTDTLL
Nature of the series: cAMP assay for in vitro receptor activation, hAMY3-R. It is filed as cell-based. To be noted: cAMP assay, hAMY3 receptor; read-out: hAMY3R EC50. Summed up:
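Receptor activation was measured as cAMP accumulation in a monoclonal cell line stably overexpressing hAMY3. Stimulation with graded doses lasted 30 min at room temperature in the presence of 0.5 mM IBMX, with human amylin as positive control.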
A general note: cAMP levels reflect the balance of adenylyl cyclase and phosphodiesterase activity.

The next series has as its target hAM1 receptor (Homo sapiens, UniProt O60895+Q16602). In words: cAMP assay for in vitro receptor activation, hAM1-R. The class given is cell-based. As to conditions: cAMP assay, hAM1 receptor; read-out: hAM1R EC50. Summed up: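 Read-out is intracellular cAMP as a measure of receptor activation. Cells stably overexpressing hAM1 were subcloned to a monoclonal line, then thawed and seeded at 8000 cells/well in DPBS with 0.05% casein and the phosphodiesterase inhibitor IBMX at 0.5 mM.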

Series [1] is described as follows: Physical stability of peptide analogues (Thioflavin T fibrillation). It is filed as physicochemical. To be noted: maximum ThT signal normalized between hAMY maximum and buffer background; 40° C., shaking, four days; pH 7 per table title. The essentials: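 ThT fluorescence (450 nm excitation, 480 nm emission; 4 μM dye) was read every 10 min over four days at 40° C under 700 rpm shaking stress, after 1 h in pH 4 acetate or pH 7 phosphate (50 mM). Peak smoothed signal expressed as percent, scaled between buffer background and hAMY maximum.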

Bridge positions count the residues as written; N and C are the ends. Square brackets hold non-standard residues; d marks the D form. Peptide text beside a SMILES is read from it. Hyp = O=C(O)[C@@H]1C[C@@H](O)CN1; Cit = NC(=O)NCCC[C@H](N)C(=O)O

hAM1 receptor, sequence (Q16602 23-461): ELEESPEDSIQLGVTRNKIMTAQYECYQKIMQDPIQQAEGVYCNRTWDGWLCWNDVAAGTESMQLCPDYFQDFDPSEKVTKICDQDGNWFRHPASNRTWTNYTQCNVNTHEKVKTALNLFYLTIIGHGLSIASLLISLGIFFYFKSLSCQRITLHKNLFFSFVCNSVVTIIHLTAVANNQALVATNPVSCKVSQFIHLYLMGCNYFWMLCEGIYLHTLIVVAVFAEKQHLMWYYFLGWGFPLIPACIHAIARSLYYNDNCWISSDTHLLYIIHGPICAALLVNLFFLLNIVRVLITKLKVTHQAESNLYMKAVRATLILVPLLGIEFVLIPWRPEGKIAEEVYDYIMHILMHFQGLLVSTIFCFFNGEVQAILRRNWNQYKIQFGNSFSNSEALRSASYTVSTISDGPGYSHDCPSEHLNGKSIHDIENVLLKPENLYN
hAM1 receptor, sequence (O60895 43-175 partner): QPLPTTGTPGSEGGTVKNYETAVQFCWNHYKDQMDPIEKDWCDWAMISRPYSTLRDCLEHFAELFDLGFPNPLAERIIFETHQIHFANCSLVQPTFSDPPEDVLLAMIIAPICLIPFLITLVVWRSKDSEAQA

As for `CC[C@H](C)[C@H](NC(=O)[C@H](CCC(N)=O)NC(=O)[C@H](Cc1c[nH]cn1)NC(=O)[C@H](C)NC(=O)[C@H](CC(C)C)NC(=O)[C@H](CCCNC(N)=O)NC(=O)[C@H](CCC(N)=O)NC(=O)[C@@H](NC(=O)[C@@H](NC(=O)[C@@H]1CSSC[C@H](NC(=O)[C@@H](N)CCCCN)C(=O)N[C@@H](CC(N)=O)C(=O)N[C@@H]([C@@H](C)O)C(=O)N[C@@H](C)C(=O)N[C@@H]([C@@H](C)O)C(=O)N1)[C@@H](C)O)C(C)C)C(=O)N[C@@H](Cc1ccc(O)cc1)C(=O)N[C@@H](CCC(N)=O)C(=O)N[C@@H](Cc1ccccc1)C(=O)N[C@H](C(=O)N[C@@H](CC(=O)O)C(=O)N[C@@H](CCCCN)C(=O)N[C@@H](CC(=O)O)C(=O)N[C@@H](CCCCN)C(=O)N[C@@H](CC(=O)O)C(=O)N[C@@H](CC(N)=O)C(=O)N[C@H](C(=O)N[C@@H](C)C(=O)N[C@@H](C)C(=O)N1CCC[C@H]1C(=O)N[C@H](C(=O)N[C@@H](CC(N)=O)C(=O)N[C@H](C(=O)NCC(=O)N[C@@H](CO)C(=O)N[C@@H](CC(N)=O)C(=O)NCC(=O)N1C[C@H](O)C[C@H]1C(N)=O)C(C)C)[C@@H](C)O)C(C)C)[C@@H](C)O` [compound 262] (H-KCNTATCTVQ[Cit]LAHQIYQFTDKDKDNVAAPTNVGSNG[Hyp]-NH2; disulfide 2-7; N-terminus assumed), the EC50 on hAMY3 receptor was 0.014 nM; at hAM1 receptor, more than 5000 nM. The “Max ThT signal (%)” value in series [1] was determined as 9.550%.
For `CC[C@H](C)[C@H](NC(=O)[C@H](CCC(N)=O)NC(=O)[C@H](Cc1c[nH]cn1)NC(=O)[C@H](C)NC(=O)[C@H](CC(C)C)NC(=O)[C@H](CCCNC(N)=O)NC(=O)[C@H](CCC(N)=O)NC(=O)[C@@H](NC(=O)[C@@H](NC(=O)[C@@H]1CSSC[C@H](NC(=O)[C@@H](N)CCCCN)C(=O)N[C@@H](CC(N)=O)C(=O)N[C@@H]([C@@H](C)O)C(=O)N[C@@H](C)C(=O)N[C@@H]([C@@H](C)O)C(=O)N1)[C@@H](C)O)C(C)C)C(=O)N[C@@H](Cc1ccc(O)cc1)C(=O)N[C@@H](CCC(N)=O)C(=O)N[C@@H](Cc1ccccc1)C(=O)N[C@@H](CC(=O)O)C(=O)N[C@@H](CCCCN)C(=O)N[C@@H](CC(=O)O)C(=O)N[C@@H](CCCCN)C(=O)N[C@@H](CC(=O)O)C(=O)N[C@@H](CC(N)=O)C(=O)N[C@H](C(=O)N[C@@H](C)C(=O)N1CCC[C@H]1C(=O)N1CCC[C@H]1C(=O)N[C@H](C(=O)N[C@@H](CC(N)=O)C(=O)N[C@H](C(=O)NCC(=O)N[C@@H](CO)C(=O)N[C@@H](CC(N)=O)C(=O)NCC(=O)N1C[C@H](O)C[C@H]1C(N)=O)C(C)C)[C@@H](C)O)C(C)C` [compound 265] (H-KCNTATCTVQ[Cit]LAHQIYQFDKDKDNVAPPTNVGSNG[Hyp]-NH2; disulfide 2-7; N-terminus assumed), the EC50 at hAMY3 receptor is 0.03 nM; at hAM1 receptor, more than 5000 nM. Also, in series [1], the “Max ThT signal (%)” value is reported as 26.550%.
The like results for `CC[C@H](C)[C@H](NC(=O)[C@H](CCC(N)=O)NC(=O)[C@H](CCC(=O)O)NC(=O)[C@H](C)NC(=O)[C@H](CC(C)C)NC(=O)[C@H](CCCNC(N)=O)NC(=O)[C@H](CCC(N)=O)NC(=O)[C@@H](NC(=O)[C@@H](NC(=O)[C@@H]1CSSC[C@H](NC(=O)[C@@H](N)CCCCN)C(=O)N[C@@H](CC(N)=O)C(=O)N[C@@H]([C@@H](C)O)C(=O)N[C@@H](C)C(=O)N[C@@H]([C@@H](C)O)C(=O)N1)[C@@H](C)O)C(C)C)C(=O)N[C@@H](Cc1ccc(O)cc1)C(=O)N[C@@H](CCC(N)=O)C(=O)N[C@@H](Cc1ccccc1)C(=O)N[C@H](C(=O)N[C@@H](CC(=O)O)C(=O)N[C@@H](CCCCN)C(=O)N[C@@H](CC(=O)O)C(=O)N[C@@H](CCCCN)C(=O)N[C@@H](CC(=O)O)C(=O)N[C@@H](CC(N)=O)C(=O)N[C@H](C(=O)N[C@@H](CO)C(=O)N1CCC[C@H]1C(=O)N1CCC[C@H]1C(=O)N[C@H](C(=O)N[C@@H](CC(N)=O)C(=O)N[C@H](C(=O)NCC(=O)N[C@@H](CO)C(=O)N[C@@H](CC(N)=O)C(=O)NCC(=O)N1C[C@H](O)C[C@H]1C(N)=O)C(C)C)[C@@H](C)O)C(C)C)[C@@H](C)O` [compound 266] (H-KCNTATCTVQ[Cit]LAEQIYQFTDKDKDNVSPPTNVGSNG[Hyp]-NH2; disulfide 2-7; N-terminus assumed) were, in that order, 0.053 nM, more than 5000 nM and 20.900%.
On the same counts, the results for `CC[C@H](C)[C@H](NC(=O)[C@H](CCC(N)=O)NC(=O)[C@H](Cc1c[nH]cn1)NC(=O)[C@H](C)NC(=O)[C@H](CC(C)C)NC(=O)[C@H](CCCNC(N)=O)NC(=O)[C@H](CCC(N)=O)NC(=O)[C@@H](NC(=O)[C@@H](NC(=O)[C@@H]1CSSC[C@H](NC(=O)[C@@H](N)CCCCN)C(=O)N[C@@H](CC(N)=O)C(=O)N[C@@H]([C@@H](C)O)C(=O)N[C@@H](C)C(=O)N[C@@H]([C@@H](C)O)C(=O)N1)[C@@H](C)O)C(C)C)C(=O)N[C@@H](Cc1ccc(O)cc1)C(=O)N[C@@H](CCC(N)=O)C(=O)N[C@@H](Cc1ccccc1)C(=O)N[C@H](C(=O)N[C@@H](CC(=O)O)C(=O)N[C@@H](CCCCN)C(=O)N[C@@H](CC(=O)O)C(=O)N[C@@H](CCCCN)C(=O)N[C@@H](CC(=O)O)C(=O)N[C@@H](CC(N)=O)C(=O)N[C@H](C(=O)N[C@@H](C)C(=O)N1CCC[C@H]1C(=O)N1CCC[C@H]1C(=O)N[C@H](C(=O)N[C@@H](CC(N)=O)C(=O)N[C@H](C(=O)NCC(=O)N[C@@H](CO)C(=O)N[C@@H](CC(N)=O)C(=O)NCC(=O)N1C[C@H](O)C[C@H]1C(N)=O)C(C)C)[C@@H](C)O)C(C)C)[C@@H](C)O` [compound 268] (H-KCNTATCTVQ[Cit]LAHQIYQFTDKDKDNVAPPTNVGSNG[Hyp]-NH2; disulfide 2-7; N-terminus assumed) are 0.014 nM, more than 5000 nM and 8.850%.
The like results for `CC[C@H](C)[C@H](NC(=O)[C@H](CCC(N)=O)NC(=O)[C@H](Cc1c[nH]cn1)NC(=O)[C@H](C)NC(=O)[C@H](CC(C)C)NC(=O)[C@H](CCCNC(N)=O)NC(=O)[C@H](CCC(N)=O)NC(=O)[C@@H](NC(=O)[C@@H](NC(=O)[C@@H]1CSSC[C@H](NC(=O)CN)C(=O)N[C@@H](CCCNC(=N)N)C(=O)N[C@@H]([C@@H](C)O)C(=O)NCC(=O)N[C@@H]([C@@H](C)O)C(=O)N1)[C@@H](C)O)C(C)C)C(=O)N[C@@H](Cc1ccc(O)cc1)C(=O)N[C@@H](CCC(N)=O)C(=O)N[C@@H](Cc1ccccc1)C(=O)N[C@H](C(=O)N[C@@H](CC(=O)O)C(=O)N[C@@H](CCCCN)C(=O)N[C@@H](CC(=O)O)C(=O)N[C@@H](CCCCN)C(=O)N[C@@H](CC(=O)O)C(=O)N[C@@H](CC(N)=O)C(=O)N[C@H](C(=O)N[C@@H](C)C(=O)N1CCC[C@H]1C(=O)N[C@@H](CCCNC(=N)N)C(=O)N[C@H](C(=O)N[C@@H](CC(N)=O)C(=O)N[C@H](C(=O)NCC(=O)N1CCC[C@H]1C(=O)N[C@@H](CC(N)=O)C(=O)NCC(=O)N[C@@H](Cc1ccc(O)cc1)C(N)=O)C(C)C)[C@@H](C)O)C(C)C)[C@@H](C)O` [compound 269] (H-GCRTGTCTVQ[Cit]LAHQIYQFTDKDKDNVAPRTNVGPNGY-NH2; disulfide 2-7; N-terminus assumed) were, in that order, 0.005 nM, more than 5000 nM and 34.500%.
